# Source: a melting point compilation (Tetko et al.; mined from patent text by program, amines drawn as free bases though some values may be those of a salt)
row,melting point [°C],Structure (SMILES)
1,171 to 176,Cc1cc(C)c(N2CCCc3c2nn(C)c3NC(=O)OC(C)(C)C)c(Cl)c1
2,85 to 88,CN(C)Cc1ccc(-c2ccc(C(=O)c3ccc(Br)cc3)c(O)c2)cc1
3,72.5 to 74.5,O=Cc1c(F)cccc1NCc1ccccc1
4,180 to 182,NC(=O)c1sc(-c2ccccc2)cc1N
5,140 to 142,Cc1cnc(CCCCNc2ncc(Cc3ccc(C)nc3)c(=O)[nH]2)c(Cl)c1
6,112 to 115,CCOC(=O)c1cccc2c1Nc1ccc(C(=O)c3ccccc3)cc1N2C(=O)OC
7,85 to 86,Cc1cc(Oc2c(F)cc(C(F)(F)F)cc2Cl)nn1C(=O)NCCBr
8,164,N#Cc1ccc2nc(N[C@@H]3CCc4ccccc43)ccc2c1
9,208 to 209,COc1ccccc1Sc1c(O)cc(-c2ccccc2)oc1=O
10,230 to 232,CC(=O)Nc1ccccc1CCc1ccccn1
11,182 to 185,CS(=O)(=O)c1ccc(-c2cnn(CC(F)(F)F)c(=O)c2Sc2ccc(F)cc2)cc1
12,51 to 53,Cc1nnsc1C(=O)Nc1ccc(-n2nc(C(F)(F)F)cc2C)cc1
13,178 to 180,c1cc(-c2csc(Cc3ncc[nH]3)n2)ccn1
14,111 to 113,O=c1n(CCCF)nnn1-c1cc(Oc2ncccn2)c(Cl)cc1F
15,137 to 138,CCCCOC(=O)NS(=O)(=O)/C=C/c1cc(OCCCC)nn1Cc1ccc(Cl)cc1Cl
16,152 to 153,CCOC(=O)C1(O)c2ccccc2S(=O)(=O)N1Cc1ccc(Br)cc1 (centres undefined)
17,112,COC(=O)c1ccc2sc(Cl)nc2c1C
18,146 to 148,Cc1c[nH]c2c(CCC#N)cccc12
19,79 to 81,O=[N+]([O-])c1cc(-n2cccc2)ccc1F

row,melting point [°C],Structure (SMILES)
1,154 to 156,Cc1ccnc2c1C(O)c1ccccc1-2 (centres undefined)
2,256,CNC(=O)c1ccc(N2CCN(Cc3cc4c(c(OC)c3)OC(C)C(=O)N4)CC2)cc1 (centres undefined)
3,247 to 248,Cn1cc(S(C)(=O)=O)c(=O)c2ccc(C(C)(C)C)cc21
4,84 to 88,COC(=O)C[C@@H](CI)O[Si](c1ccccc1)(c1ccccc1)C(C)(C)C
5,169,CC(C)(C)OC(=O)Nc1ccc(C#Cc2ccc(F)cc2)cc1NC(=O)CC(=O)c1ccnc(-n2ccnc2)c1
6,121,CC(=O)OCOC(=O)c1oc(-c2ccccc2)cc(=O)c1Br
7,116 to 117,Clc1ccc(-c2nc(COc3ccc(CCCn4ccnc4)cc3)co2)cc1
8,130 to 131,C=C1N(c2cccc3ccccc23)C(=O)OC12CCN(Cc1ccccc1)CC2
9,102 to 104,Cn1ccnc1Sc1c(Cl)cccc1[N+](=O)[O-]
10,124 to 126,CN(C)S(=O)(=O)c1cccc2c1Sc1ccc(OCc3ccccc3)cc1N2CCCCl
11,186 to 187,CC(=O)c1ccc(N2CCN(Cc3cn4cc(Cl)ccc4n3)CC2)cc1
12,161 to 163,CN(C)CCN(C)c1ccc(Nc2cc(Br)cn(C)c2=O)nc1
13,123 to 124,CCOC(=O)c1cnc(-c2ccccc2OC(C)C)[nH]c1=O
14,116 to 119,CN1CCC(=C2c3ccc(Cl)cc3CCc3cccnc32)CC1
15,110 to 122,O=C1NCCN1Cc1ccc(OCc2ccccc2)cc1
16,93 to 96,Nc1ccc2c(c1Br)C(=O)CCC2
17,104 to 106,CC(=O)N1CCN=C1CC(c1ccccc1)c1ccccc1
18,67 to 68,CCN(CC)C(=O)n1ccc(S(=O)(=O)c2ccccc2OC)n1
19,116 to 119,O=C(CCO)Cc1cccc(OCc2ccc3ccccc3n2)c1

# More lines, now with the values behind:
row,Structure (SMILES),melting point [°C]
1,NNc1ccc(Cl)cc1F,57 to 63
2,CN1CCC(OC(c2ccccc2)c2nc3ccccc3[nH]2)C1 (centres undefined),53
3,NC(=O)C(c1ccccc1)(c1ccccc1)C1CCN(C2CCCCC2)C1 (centres undefined),119 to 121
4,COC1=NS(=O)N=C1NCCCCC#CCN(C)C (centres undefined),154 to 155
5,Cc1ccc(C2CCCN2S(=O)(=O)c2ccc(C)cc2)cc1 (racemic),124
6,CCCc1nc(OC)c(NC(=O)N2CCN(c3cc(C)cc(C)c3)CC2)cc1C(=O)NC(C)C(=O)Nc1cc(CO)cc(Nc2c3ccccc3nc3ccccc23)c1 (centres undefined),195 to 197
7,Cn1cc(C2=C(c3c4n(c5ccccc35)CCCC(CNC(N)=N[N+](=O)[O-])C4)C(=O)NC2=O)c2ccccc21 (centres undefined),177 to 178
8,O=C(NCCNCC(O)COc1ccc(OCCOCC2CC2)cc1)N1CCOCC1 (centres undefined),80 to 81
9,C[Si](C)(C)C#Cc1ccc(C=O)cc1,66 to 67
10,CCOP(=O)(OCC)SCc1ccc(-c2nc(SC)c3cc(Br)ccc3n2)cc1,126 to 127
11,Fc1ccc(-c2cc(C(F)(F)F)n[nH]2)c(F)c1,157 to 158
12,COC(=O)C1=CC2=CCC3C(CCC4(C)C(C(=O)c5ccc(O)cc5)CCC34)C2(C)CC1 (centres undefined),208 to 210
13,Nc1nc(C(=O)NCCO)cs1,118 to 120
14,OC[C@H]1C[C@@H](n2cnc3c(N[C@H]4CCN(c5ccc(C(F)(F)F)cc5)C4)ncnc32)[C@H](O)[C@@H]1O,111 to 114
15,NS(=O)(=O)OCCCCCOS(N)(=O)=O,96.5 to 99
16,NS(=O)(=O)c1ccccc1S(=O)Cc1ccccc1 (centres undefined),206 to 209
17,Cc1cc(C(O)(C(F)(F)F)C(F)(F)F)cc(C)c1NCCC(=O)O,175 to 176
18,ClCc1cc2cccnc2s1,47 to 49

row,Structure (SMILES),melting point [°C]
1,CC(Oc1ncn(-c2ccc(C(F)(F)F)cc2)n1)C(N)=O (centres undefined),178 to 180
2,COc1ccccc1C(=O)Nc1ccccc1C(c1ccc(O)cc1)c1ccc(O)cc1,258
3,O=C(CC=C(Cl)Cl)Oc1ccc([N+](=O)[O-])cc1,80 to 90
4,OC(CN1CCCCC1)c1cc(-c2ccccc2)on1 (centres undefined),104 to 106
5,COC(=O)C(C)Oc1noc2cc(Cl)c([N+](=O)[O-])cc12 (centres undefined),98 to 101
6,CCCCCCCCCCCCCCOc1ccc(CC(=O)Nc2ccc(CBr)cc2)cc1,110 to 115
7,O=c1[nH]c2ccc(C3=NOC(CN4CCC(C(O)c5ccc(F)cc5)CC4)C3)cc2o1 (centres undefined),186 to 191
8,O=S(=O)(Nc1cc(Cl)c(Oc2nc3ccc(Cl)cc3s2)c(Cl)c1)c1ccc(Cl)cc1Cl,73 to 75
9,CCC(Oc1cccc(C(F)(F)F)c1C)C1=NCCN1 (centres undefined),120 to 122
10,O=C(O)CCCCOc1ccc(N2CCN(c3ccncc3)CC2)cc1,237 to 241
11,CC1(C)SCC(CO)S1 (centres undefined),45 to 50
12,CC(C)(C)c1ccc2c(Cc3cccc4ccccc34)c3cc(C(C)(C)C)ccc3c(Cc3cccc4ccccc34)c2c1,285
13,CCSc1c(C=NO)c(=O)n(C)c(=O)n1C,161 to 163
14,Cc1cc(OC(C)(C)C(=O)O)cc(C)c1C,77 to 78
15,N#Cc1cccc(-c2ccc(-c3cccc(C#N)c3)o2)c1,163 to 164
16,O=S(=O)(NCC1CC1)c1cccc(-c2cc(-c3nc(-c4ccc(C(F)(F)F)cc4)cc(C(F)(F)F)n3)ccn2)c1,134
17,COC(=O)[C@@H]1COC(=S)N1C(C)=O,68 to 68.4
18,CC(C)Sc1nc(OS(C)(=O)=O)cs1,83 to 85
